Measurements published in patent US10238688B2, “Combination therapies for bladder cancer” (GENEDIA BIOTECH CO. LTD., priority 2015, dated 2019).

Key:
EJ = test: MTT cell survival / IC50, EJ cells; assay type: cell-based, human
Procedure: (§1) The clinical grade of the chemotherapeutics (NCI Dictionary of Cancer Terms) was provided by the First Affiliated Hospital of Harbin Medical University: Pirarubicin (Pi, Wanle, Shenzhen), Paclitaxel (Pa, Taiji, Sichuan), Adriamycin (Ad, Pfizer, Jiangsu), Epirubicin Hydrochloride (EH, Haizheng, Zhejiang), Hydroxycamptothecin (Hy, Lishizhen, Hubei), Cisplatin (Ci, Haosen, Jiangsu), Gemcitabine (Ge, Haosen, Jiangsu) and Mitomycin (Mi, Haizheng, Zhejiang). The drug induced cell death was determined by a thiazolyl […] (MTT, 490 nm reading) based cell proliferation assay in the cultured cells following treatment by various concentrations of drugs for 72 hours. The relative chemoresistance to each drug of all cell lines was calculated with the lowest IC50 as a reference. The overall chemoresistance of each cell line was described as “chemoresistance index”, the numerator of the total relative IC50 to all the drugs over the number of drugs to rank the overall resistance state of each cell line to the six chemotherapeutics collectively.
(§2) The relative IC50 (fold) of each drug of all nine cell lines was normalized to the lowest IC50 in the most sensitive cell line (FIG. 2G), to describe the single drug resistance of cell lines. The overall chemoresistance of each cell line, a “chemoresistance index” (the numerator of the total relative IC50 over the number of drugs) (FIG. 2G) were calculated to rank the overall resistance state of each cell line to this six chemotherapeutics.
(§3) Twenty six-drug combinations at the indicated doses were initially generated through a random number generator (using MATLAB MathWorks©, Natick, Mass., U.S.) (The upper half of Table 1). The cell survival (% over the not drug control) of treated cells was determined and then used for a calculation of the average cumulative cell survival (%, ACS: the sum of cell survival (%) per combination divided by the number of cell lines tested). ACS<30% was used to separate the effective from the not-effective combinations.

Biu87 = test: MTT cell survival / IC50, Biu87 cells; assay type: cell-based, human
Procedure: as §1, §2, §3

Wnt pathway = test: Cignal Finder dual-luciferase pathway reporter, Wnt; assay type: cell-based, human; design: key to Relative activity, Wnt reporter: firefly/renilla ratio, background (negative control) subtracted; settings: for Relative activity, Wnt reporter: luc/Renluc relative to negative control reporter, single drug at 4 folds vs EH/Ci/Mi combination;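 on digitalized pathway activity, Wnt: code −1 means repressed below 0.5-fold of 5637 cells or no-drug control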
Procedure: (§4) The pathway analysis was performed with Qiagen's Cignal Finder Pathway Reporter Array systems according to the manufacturer's instructions. The pathway-focused dual-luciferase reporter construct was a mixture of an inducible transcription factor responsive firefly luciferase reporter and constitutively expressing renilla construct. Transcriptional response element (TRE) sequence response elements to each specific transcriptional factor triggered by the different signaling pathways are positioned before the TATA box of firefly luciferase reporter gene. The extent of activity of the reporter reflects the level of activity of the particular signaling pathway. CMV controlled renilla expression vector is co-transfected into the cell as an internal control. Non-inducible reporter construct that lacks the transcriptional factor binding sequence and could not be induced by any transcription factors is used as a negative control. Cells transfected with CMV directed firefly luciferase reporter gene serve as a positive control. Briefly, cells seeded in 6-well plates were transfected with Cignal finder pathway arrays according to the manufacturer's instructions (Qiagen). Then cells were seeded onto 96-well plates. Ci (6000 ng/mL), Mi (800 ng/mL), or EH (1000 ng/mL) and Ci/Mi/EH combination (Ci, 1500 ng/mL, Mi, 800 ng/mL and EH, 1000 ng/m L) were then added to the cells 24 h post-transfection. After 6 h of incubation with the different drugs at 37° C., cells were lysed and a dual luciferase assay (for firefly and renilla luciferase) was performed using a PromegaGloMax 20/20 illuminometer. The firefly luciferase activities were normalized over the renilla luciferase activities after background activity determined by luciferase activities of negative controls was subtracted. A triple test of cell survival under these drug doses was also performed by MTT assay following 18 h incubation at 37° C. […]

ER Stress pathway = test: Cignal Finder dual-luciferase pathway reporter, ER Stress; assay type: cell-based, human; settings: for Relative activity, ER Stress reporter: luc/Renluc relative to negative control reporter, single drug at 4 folds vs EH/Ci/Mi combination
Procedure: as §4

SV-HUC-1 = assay type: cell-based
Procedure: as §1, §2

5637 = test: MTT cell survival / IC50, 5637 cells; assay type: cell-based, human
Procedure: as §1, §2, §3

Notch pathway = test: Cignal Finder dual-luciferase pathway reporter, Notch; assay type: cell-based, human; design: key to Relative activity, Notch reporter: firefly/renilla ratio, background (negative control) subtracted; settings: for Relative activity, Notch reporter: luc/Renluc relative to negative control reporter, single drug at 4 folds vs EH/Ci/Mi combination;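 on digitalized pathway activity, Notch: code −1 means repressed below 0.5-fold of 5637 cells or no-drug control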
Procedure: as §4

H-bc = test: MTT cell survival / IC50, H-bc cells; assay type: cell-based, human
Procedure: as §1, §2, §3

COc1cccc2c1C(=O)c1c(O)c3c(c(O)c1C2=O)C[C@@](O)(C(=O)CO)C[C@@H]3[C@@H]1C[C@H](N)[C@@H](O)[C@H](C)O1 [EH, (8R,10S)-10-((2S,4S,5R,6S)-4-amino-5-hydroxy-6-methyltetrahydro-2H-pyran-2-yl)-6,8,11-trihydroxy-8-(2-hydroxyacetyl)-1-methoxy-7,8,9,10-tetrahydrotetracene-5,12-dione]
Cell survival (%) (EJ; Table S3, ng/ml: Pi 40, Pa 160, EH 250, Ci 1500, Mi 200, 1=Ci/Mi, 2=EH/Ci/Mi, 3=Pa/Ci/Mi, 4=Pi/Ci/Mi): 56.55% | Single drug 4X Cell Survival (%) (EJ; ng/ml: EH 1000, Ci 6000, Mi 800, Pi 160, Pa 640, Ge 20, EH/Ci/Mi regimen): 38.46% | Cell survival (%) (Biu87; Biu87, Table S3, ng/ml: Pi 40, Pa 160, EH 250, Ci 1500, Mi 200, 1=Ci/Mi, 2=EH/Ci/Mi, 3=Pa/Ci/Mi, 4=Pi/Ci/Mi): 38.68% | Single drug 4X Cell Survival (%) (Biu87; Biu87, ng/ml: EH 1000, Ci 6000, Mi 800, Pi 160, Pa 640, Ge 20, EH/Ci/Mi regimen): 23.24% | Cell survival 72 hours (Biu87; Biu87 cells, Table 4 (A)): 23.24% | ACS (%) (Biu87; Biu87 cells, Table 4 (B)): 23.24% | digitalized pathway activity, Wnt (Wnt pathway; 5637 cells): 0 (null (0) if neither of the above holds) | relative drug trigged pathway activity over the no-drug level, Wnt (Wnt pathway; 5637 cells): 1.19 fold | Relative activity, Wnt reporter (Wnt pathway; 5637 cells): 1.04 | digitalized pathway activity, Wnt (Wnt pathway; Biu87 cells): 0 (null (0) if neither of the above holds) | relative drug trigged pathway activity over the no-drug level, Wnt (Wnt pathway; Biu87 cells): 0.95 fold | Relative activity, Wnt reporter (Wnt pathway; Biu87 cells): 1.57 | digitalized pathway activity, Wnt (Wnt pathway; H-bc cells): 0 (null (0) if neither of the above holds) | relative drug trigged pathway activity over the no-drug level, Wnt (Wnt pathway; H-bc cells): 1.03 fold | Relative activity, Wnt reporter (Wnt pathway; H-bc cells): 1.10 | digitalized pathway activity, Wnt (Wnt pathway; SV-HUC-1 cells): 0 (null (0) if neither of the above holds) | relative drug trigged pathway activity over the no-drug level, Wnt (Wnt pathway; SV-HUC-1 cells): 1.05 fold | Relative activity, Wnt reporter (Wnt pathway; SV-HUC-1 cells): 1.30 | digitalized pathway activity, Wnt (Wnt pathway; UM-UC-3 cells): 0 (null (0) if neither of the above holds) | Relative activity, Wnt reporter (Wnt pathway; UM-UC-3 cells): 4.12 | relative drug trigged pathway activity over the no-drug level, Wnt (Wnt pathway; Um-Uc-3 cells): 1.15 fold | relative drug trigged pathway activity over the no-drug level, ER Stress (ER Stress pathway; 5637 cells): 3.26 fold | Relative activity, ER Stress reporter (ER Stress pathway; 5637 cells): 84.76 | relative drug trigged pathway activity over the no-drug level, ER Stress (ER Stress pathway; Biu87 cells): 1.66 fold | Relative activity, ER Stress reporter (ER Stress pathway; Biu87 cells): 36.36 | digitalized pathway activity, ER Stress (ER Stress pathway; H-bc cells): 0 (null (0) if neither of the above holds) | relative drug trigged pathway activity over the no-drug level, ER Stress (ER Stress pathway; H-bc cells): 1.38 fold | Relative activity, ER Stress reporter (ER Stress pathway; H-bc cells): 28.61 | relative drug trigged pathway activity over the no-drug level, ER Stress (ER Stress pathway; SV-HUC-1 cells): 2.93 fold | Relative activity, ER Stress reporter (ER Stress pathway; SV-HUC-1 cells): 300.00 | digitalized pathway activity, ER Stress (ER Stress pathway; UM-UC-3 cells): 0 (null (0) if neither of the above holds) | Relative activity, ER Stress reporter (ER Stress pathway; UM-UC-3 cells): 120.98 | relative drug trigged pathway activity over the no-drug level, ER Stress (ER Stress pathway; Um-Uc-3 cells): 1.48 fold | Single drug 4X Cell Survival (%) (SV-HUC-1; SV-HUC-1, ng/ml: EH 1000, Ci 6000, Mi 800, Pi 160, Pa 640, Ge 20, EH/Ci/Mi regimen): 61.89% | Cell survival 72 hours (SV-HUC-1; SV-HUC-1 cells, Table 4 (A)): 61.89% | ACS (%) (SV-HUC-1; SV-HUC-1 cells, Table 4 (B)): 61.89% | Cell survival (%) (5637; 5637, Table S3, ng/ml: Pi 40, Pa 160, EH 250, Ci 1500, Mi 200, 1=Ci/Mi, 2=EH/Ci/Mi, 3=Pa/Ci/Mi, 4=Pi/Ci/Mi): 14.75% | Single drug 4X Cell Survival (%) (5637; 5637, ng/ml: EH 1000, Ci 6000, Mi 800, Pi 160, Pa 640, Ge 20, EH/Ci/Mi regimen): 2.23% | Cell survival 72 hours (5637; 5637 cells, Table 4 (A)): 2.23% | ACS (%) (5637; 5637 cells, Table 4 (B)): 2.23% | relative drug trigged pathway activity over the no-drug level, Notch (Notch pathway; 5637 cells): 1.92 fold | Relative activity, Notch reporter (Notch pathway; 5637 cells): 1.95 | digitalized pathway activity, Notch (Notch pathway; Biu87 cells): 0 (null (0) if neither of the above holds) | relative drug trigged pathway activity over the no-drug level, Notch (Notch pathway; Biu87 cells): 1.34 fold | Relative activity, Notch reporter (Notch pathway; Biu87 cells): 5.94 | relative drug trigged pathway activity over the no-drug level, Notch (Notch pathway; H-bc cells): 1.6 fold | Relative activity, Notch reporter (Notch pathway; H-bc cells): 2.20 | digitalized pathway activity, Notch (Notch pathway; SV-HUC-1 cells): 0 (null (0) if neither of the above holds) | relative drug trigged pathway activity over the no-drug level, Notch (Notch pathway; SV-HUC-1 cells): 1.3 fold | Relative activity, Notch reporter (Notch pathway; SV-HUC-1 cells): 5.60 | Relative activity, Notch reporter (Notch pathway; UM-UC-3 cells): 10.16 | relative drug trigged pathway activity over the no-drug level, Notch (Notch pathway; Um-Uc-3 cells): 2.05 fold | Cell survival 72 hours (H-bc; H-bc cells, Table 4 (A)): 2.60% | ACS (%) (H-bc; H-bc cells, Table 4 (B)): 2.60% | Cell survival (%) (H-bc; H-bc, Table S3, ng/ml: Pi 40, Pa 160, EH 250, Ci 1500, Mi 200, 1=Ci/Mi, 2=EH/Ci/Mi, 3=Pa/Ci/Mi, 4=Pi/Ci/Mi): 61.03% | Single drug 4X Cell Survival (%) (H-bc; H-bc, ng/ml: EH 1000, Ci 6000, Mi 800, Pi 160, Pa 640, Ge 20, EH/Ci/Mi regimen): 2.6%
